According to patent US20230233576A1, “ECLITASERTIB FOR USE IN TREATING CONDITIONS INVOLVING SYSTEMIC HYPERINFLAMMATORY RESPONSE” (priority 2020, published 2023):
Several values for one entry are separate records, joined by “and”; a condition that tells them apart may be missing. Identical values can stand only once. Like-named read-outs stand apart in the source and are kept apart here.

Experiments:
[1] = tested on: C-reactive protein (CRP) levels; test: Phase 1b severe COVID-19 study: CRP level; assay type: in vivo, human; details: 600 mg; for CRP raw data Mean / CRP relative change from baseline Mean / CRP raw data Median / CRP relative change from baseline Median: observed; for CRP raw data Mean / CRP relative change from baseline Mean: no imputation
[2] = Phase 1b severe COVID-19 study: pharmacokinetics (plasma concentrations, Bayesian population PK); assay type: in vivo, human; details: for AUC(0-t) / Cmax: human, oral, 300 mg
Experimental: RIPK1 Inhibitor concentrations at selected time points over the two weeks of treatment were summarized by descriptive statistics. PK parameters such as Cmax, tmax, and AUC were calculated by a Bayesian analysis: the main results are presented in Section 5.2.
Descriptive statistics on plasma concentration of RIPK1 Inhibitor were analyzed by the Sponsor's Biostatistics Department.
Plasma concentrations of RIPK1 Inhibitor was listed and summarized by arithmetic mean, geometric mean, standard deviation (SD), standard error of the mean (SEM), coefficient of variance (%) (CV), minimum, median, maximum, and number of observations by timepoints. When applicable, relevant data were summarized by route: i.e., oral and oral gavage, and timepoints.
The pharmacokinetic parameters in participants with severe COVID-19 were assessed by Bayesian analysis using a POP population PK model (P0H0757) developed in other Phase 1 studies.
PK parameters were determined for 46 participants (one participant was excluded because all plasma concentrations were BLOQ). A summary of descriptive statistics on RIPK1 Inhibitor plasma AUC0-12, Cmax, and Ctrough over 2 weeks of treatment are presented in Table 43.

[3] = Day 03, MMRM, LOCF, Efficacy population
[4] = Day 05, MMRM, LOCF, Efficacy population
[5] = Day 07, MMRM, LOCF, Efficacy population
[6] = Day 15, MMRM, LOCF, Efficacy population

Structure (SMILES): CN1C(=O)[C@@H](NC(=O)c2nnc(Cc3ccccc3)[nH]2)COc2cccnc21 [RIPK1 Inhibitor, (S)-5-benzyl-N-(5-methyl-4-oxo-2,3,4,5-tetrahydropyrido[3,2-b][1,4]oxazepin-3-yl)-4H-1,2,4-triazole-3-carboxamide]
- Percent change from baseline in CRP, point estimate [1, 3]: −12.85%
- Relative change from baseline in CRP, point estimate (geometric means) [1, 3]: 0.87
- CRP raw data Mean ([1]; Day 3, Efficacy population): 59.4 mg/L
- CRP relative change from baseline Mean ([1]; Day 3, Efficacy population): 0.58 and 0.581
- CRP raw data Median ([1]; Day 3, Efficacy population): 44.4 mg/L
- CRP relative change from baseline Median ([1]; Day 3, Efficacy population): 0.384
- relative change from baseline in CRP, RIPK1 Inhibitor versus placebo ratio ([1]; Day 3, with imputation of missing data): 0.91
- relative change from baseline in CRP, RIPK1 Inhibitor versus placebo ratio ([1]; Day 3, without imputation of missing data): 0.92
- Percent change from baseline in CRP, point estimate [1, 4]: −51.43%
- Relative change from baseline in CRP, point estimate (geometric means) [1, 4]: 0.49
- CRP raw data Mean ([1]; Day 5, Efficacy population): 37.7 mg/L
- CRP relative change from baseline Mean ([1]; Day 5, Efficacy population): 0.37 and 0.368
- CRP raw data Median ([1]; Day 5, Efficacy population): 24.2 mg/L
- CRP relative change from baseline Median ([1]; Day 5, Efficacy population): 0.195
- relative change from baseline in CRP, RIPK1 Inhibitor versus placebo ratio ([1]; Day 5, with imputation of missing data): 0.70
- relative change from baseline in CRP, RIPK1 Inhibitor versus placebo ratio ([1]; Day 5, without imputation of missing data): 0.73
- mean of relative change from baseline in CRP ([1]; Day 7, LOCF imputation): 0.315
- median of relative change from baseline in CRP ([1]; Day 7, LOCF imputation): 0.165
- Percent change from baseline in CRP, point estimate [1, 5]: −64.81%
- Relative change from baseline in CRP, point estimate (geometric means) [1, 5]: 0.35
- ratio of the adjusted relative change from baseline in CRP, RIPK1 Inhibitor vs placebo (point estimate) ([1]; Day 7, MMRM, LOCF, Efficacy population, below 1 = larger decrease than placebo): 0.85
- observed mean of CRP ([1]; Day 7, missing values imputed with LOCF): 28.1 mg/L
- CRP raw data Mean ([1]; Day 7, Efficacy population): 24.2 mg/L
- CRP relative change from baseline Mean ([1]; Day 7, Efficacy population): 0.289
- CRP raw data Median ([1]; Day 7, Efficacy population): 14.0 mg/L
- CRP relative change from baseline Median ([1]; Day 7, Efficacy population): 0.119
- Percent change from baseline in CRP, point estimate [1, 6]: −71.76%
- Relative change from baseline in CRP, point estimate (geometric means) [1, 6]: 0.28
- CRP raw data Mean ([1]; Day 15, Efficacy population): 29.2 mg/L
- CRP relative change from baseline Mean ([1]; Day 15, Efficacy population): 0.380
- CRP raw data Median ([1]; Day 15, Efficacy population): 9.6 mg/L
- CRP relative change from baseline Median ([1]; Day 15, Efficacy population): 0.092
- median time for 50% decrease in CRP level relative to baseline ([1]; Kaplan-Meier, Efficacy population): 3 days
- participants with 50% decrease from baseline in CRP ([1]; by Day 3): 69.2%
- steady state reached on ([2]; 300 mg BID for up to 14 days, severe COVID-19): 3 days
- exposure difference between male and female ([2]; 300 mg BID, severe COVID-19): No obvious exposure difference
- higher AUC0-12h in patients<85.6 kg as compared to ≥85.6 kg ([2]; 300 mg BID, severe COVID-19): 14%
- Ctrough, mean (SD) ([2]; 300 mg BID, steady state (Day 3), plasma, severe COVID-19, Bayesian population PK): 2025 (783) ng/mL
- Ctrough ([2]; Day 1 (n = 46), Mean (SD), 300 mg BID, plasma, participants with severe COVID-19, Bayesian population PK analysis): 1457 (442) ng/mL
- Ctrough ([2]; Day 3 (n = 42), Mean (SD), 300 mg BID, plasma, participants with severe COVID-19, Bayesian population PK analysis): 2025 (783) ng/mL
- Ctrough ([2]; Day 7 (n = 26), Mean (SD), 300 mg BID, plasma, participants with severe COVID-19, Bayesian population PK analysis): 2142 (838) ng/mL
- Ctrough ([2]; Day 14 (n = 10), Mean (SD), 300 mg BID, plasma, participants with severe COVID-19, Bayesian population PK analysis): 2524 (875) ng/mL
- AUC(0-t) ([2]; plasma, 300 mg BID, steady state (Day 3), plasma, severe COVID-19, Bayesian population PK, read-out: AUC0-12h, mean (SD)): 42200 ng·h/mL
- Cmax ([2]; plasma, 300 mg BID, steady state (Day 3), plasma, severe COVID-19, Bayesian population PK, read-out: Cmax, mean (SD)): 5170 ng/mL
- AUC(0-t) ([2]; plasma, Day 1 (n = 46), Mean (SD), 300 mg BID, plasma, participants with severe COVID-19, Bayesian population PK analysis, read-out: AUC0-12): 28200 ng·h/mL
- Cmax ([2]; plasma, Day 1 (n = 46), Mean (SD), 300 mg BID, plasma, participants with severe COVID-19, Bayesian population PK analysis, read-out: Cmax): 3680 ng/mL
- AUC(0-t) ([2]; plasma, Day 3 (n = 42), Mean (SD), 300 mg BID, plasma, participants with severe COVID-19, Bayesian population PK analysis, read-out: AUC0-12): 42200 ng·h/mL
- Cmax ([2]; plasma, Day 3 (n = 42), Mean (SD), 300 mg BID, plasma, participants with severe COVID-19, Bayesian population PK analysis, read-out: Cmax): 5170 ng/mL
- AUC(0-t) ([2]; plasma, Day 7 (n = 26), Mean (SD), 300 mg BID, plasma, participants with severe COVID-19, Bayesian population PK analysis, read-out: AUC0-12): 43800 ng·h/mL
- Cmax ([2]; plasma, Day 7 (n = 26), Mean (SD), 300 mg BID, plasma, participants with severe COVID-19, Bayesian population PK analysis, read-out: Cmax): 5340 ng/mL
- AUC(0-t) ([2]; plasma, Day 14 (n = 10), Mean (SD), 300 mg BID, plasma, participants with severe COVID-19, Bayesian population PK analysis, read-out: AUC0-12): 48400 ng·h/mL
- Cmax ([2]; plasma, Day 14 (n = 10), Mean (SD), 300 mg BID, plasma, participants with severe COVID-19, Bayesian population PK analysis, read-out: Cmax): 5630 ng/mL
